Experiments:
Human His6-CBX7 = Human His6-CBX7 (Homo sapiens (Human), UniProt O95931); experiment: CBX7 AlphaScreen assay (binding of CBX7 chromodomain to H3K27me3 peptide); settings: for IC50: average, His6-CBX7 / biotinylated-H3K27me3, read-out: AVG CBX7 Alpha IC50
Excerpt: A biochemical assay was developed based on nanoparticle AlphaScreen assay to monitor the binding of recombinant CBX chromodomain (CBX7) to a methylated peptide (H3K27me3).
The primary assay uses recombinant CBX chromodomain and synthetic, trimethylated H3 histone tail peptide. When CBX/histone tail-binding occurs, AlphaScreen beads are brought in close proximity, resulting in singlet molecular oxygen transfer and production of a luminescent signal. Assay positives inhibiting the binding interaction are therefore expected to prevent complex formation, diminishing signal intensity. The AlphaScreen technology features an anti-Stokes shift in detection: due to energy transfer between beads by singlet oxygen and internal chemical reactions within the acceptor bead, the emission wavelength is blue-shifted relative to the excitation wavelength, which is impossible in traditional fluorescent assays. The relatively long path length of 200 nm that singlet molecular oxygen can travel enables reporting on full protein complexes and not just single target binding. […] Neither the small molecules being tested nor the target protein, CBX7, need to be chemically, conformationally, or behaviorally altered by tethering them to a surface or reporter that may decrease physiological relevance and beget screening artifacts. The primary assay monitors binding of the chromodomain of CBX7 to a histone tail containing a trimethylated lysine at K27, the biologically relevant interaction through which PRC binds to chromatin to repress transcription. This is a robust proximity-based assay that utilizes AlphaScreen technology (PerkinElmer). The assay consists of His6-CBX7 bound to a Ni^++ acceptor bead and the biotinylated histone tail bound to a streptavadin donor bead. Upon CBX7/H3K27me3 binding, the steptavidin bead comes into proximity with the Ni^++ bead to luminesce upon light excitation ([…]; see below).
The protocol for the CBX7 AlphaScreen was as follows: a standard alpha buffer (50 mM HEPES, 150 mM NaCl, 0.1% w/v BSA, 0.01% w/v Tween20) at pH 8.0 and make up two stock solutions at 2× final concentration in the alpha buffer. Solution A contains Human His6-CBX7 is used with biotinylated-H3K27me3 (residues 20-34), at 100 nM and 50 nM respectively. Solution B contains 20 nM streptavidin donor beads and 20 nM nickel acceptor beads. For 384 well assay formats, 10 uL of solution A is added to each well of the assay plate and the plate is spun at 1000 rpm for 30 seconds. 100 nL of experimental compounds from stock plates are delivered by robotic pin transfer using a Janus Workstation (PerkinElmer), allowing the compounds to interact with CBX7 binding prior to assay measurement, followed by another spin and an incubation room temperature. Finally, 10 uL of solution B is added to each well, the plate is spun again and then incubated at room temperature. AlphaScreen measurements are performed on an Envision 2104 (PerkinElmer) utilizing the manufacturer's protocol that has the correct excitation and emission wavelengths, cutoff filters, delay time, etc. A crosstalk calculation is also done through the Envision software to correct for luminescence for adjacent wells while reading the plate. The signal is then normalized to DMSO control wells on the compound plate prior to creation of the IC50 curves.

[1] = test system: HCT292 human lung cancer cells; experiment: HCT292 cell viability (crystal violet / ATPlite); format: cell-based; settings: for IC50 / viability at 10 µM / viability at 50 µM / viability at 20 µM: Homo sapiens; for IC50: Table 4, assay not given, cited among cellular activity Tables 3-9 (HCT292); for % Viability / viability at 10 µM / viability at 50 µM / viability at 20 µM: HCT292 cells, relative to DMSO; for % Viability: 96 hours; for viability at 10 µM / viability at 50 µM / viability at 20 µM: 96 h
Procedure: Lastly, the biological activity of lead compounds was assessed in cancer cells lines determined to be sensitive to CBX inhibition. First, a cell line screening for CBX2 and CBX3 dependence/sensitivity was conducted using shRNAs. […] These cell lines were utilized to evaluate the potential cellular activity of a panel of CBX inhibitors (Tables 3-9).
Briefly, HCT292 cells were treated 24 hours after passage; the compounds in DMSO were added directly to their media. Initially, which cells caused cell death was checked by fixing and staining the cells with crystal violet 96-hours post treatment and then reading the absorbance using the Envision and comparing the signal to a DMSO control. This was done as a preliminary viability screen prior to the ATPlite assay to determine which compounds HCT292 cells were and H661 cells were not sensitive to. […] Thus, a cellular system to evaluate the activity of small molecule CBX inhibitors was established.

CBX7 = CBX7 (Homo sapiens (Human), UniProt O95931); experiment: Isothermal titration calorimetry; format: binding; settings: in words (FIG. 20)
Chain of CBX7 (O95931 whole entry): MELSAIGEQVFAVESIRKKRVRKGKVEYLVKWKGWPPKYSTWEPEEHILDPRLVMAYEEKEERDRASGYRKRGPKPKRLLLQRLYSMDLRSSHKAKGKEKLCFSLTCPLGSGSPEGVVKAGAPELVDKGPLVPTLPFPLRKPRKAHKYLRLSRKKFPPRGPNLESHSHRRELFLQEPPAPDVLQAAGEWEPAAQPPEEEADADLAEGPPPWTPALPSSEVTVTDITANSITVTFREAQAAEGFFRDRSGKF
Excerpt: A new series of compounds were designed and synthesized based on computational modeling of inhibitor compounds with the literature reported crystal structure of CBX.

Chain of Human His6-CBX7 (O95931 11-69): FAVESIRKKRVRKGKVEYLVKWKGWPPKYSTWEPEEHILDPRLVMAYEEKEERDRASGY

Row | IC50 (Human His6-CBX7) | Compound | other results
1 | 10.2 µM | O=C(CC1S/C(=N/N=C/c2cccnc2)NC1=O)Nc1ccc(N2CCCC2)cc1 (centres unmarked) [ACV-14 (2)] | IC50 [1]: 115 µM
2 | 69.7 µM | O=C(CC1S/C(=N/N=C/c2ccc(O)c(O)c2O)NC1=O)Nc1ccc(N2CCCC2)cc1 (centres unmarked) [ACV-17 (1), 2-(4-oxo-2-((2,3,4-trihydroxybenzylidene)hydrazono)thiazolidin-5-yl)-N-(4-(pyrrolidin-1-yl)phenyl) acetamide] | % Viability ([1]; 50 uM, listed as 1-258C): 33.0%; viability at 10 µM ([1]; 10 uM): 72.2%
3 | 0.93 µM | O=C(CC1S/C(=N/N=C/c2ccc(O)c(O)c2O)NC1=O)Nc1ccc(N2CCCC2)cc1 (centres unmarked) [ACV-17 (2)] | % Viability ([1]; 50 uM, listed as 2-165): 58.8%; IC50 [1]: 0.334 µM
4 | 1.74 µM | O=C(CC1S/C(=N/N=C/c2ccc(O)c(O)c2O)NC1=O)Nc1ccc(N2CCCC2)cc1 (centres unmarked) [ACV-17(CP)] | % Viability ([1]; 50 uM, listed as 258C (CP)): 20.3%
5 |  | COC(=O)C1CSC(CC(=O)Nc2ccc(N3CCCC3)cc2)C(=O)N1 (centres unmarked) [ACV-22] | binding affinity with CBX (Human His6-CBX7; in words (FIG. 9)): low micromolar; binding affinity by isothermal titration calorimetry (CBX7): further confirmed
6 | 12.8 µM | O=C(Cc1cnc(NC(=O)Nc2cccnc2)s1)Nc1ccc(N2CCCC2)cc1 [ACV-40, 2-(2-(3-(pyridin-3-yl)ureido)thiazol-5-yl)-N-(4-(pyrrolidin-1-yl)phenyl)acetamide] | viability at 10 µM ([1]; 10 uM): 99%; viability at 50 µM ([1]; 50 uM): 82.9%; IC50 [1]: 83.9 µM
7 | 155 µM | CN(C)c1ccc(CCNC(=O)CC2S/C(=N/N=C/c3cccnc3)NC2=O)cc1 (centres unmarked) [ACV-42] | viability at 50 µM ([1]; 50 uM): 95.8%; IC50 [1]: 1000 µM
8 | 5.31 µM | CN1CCN(CCNC(=O)CC2S/C(=N/N=C/c3ccc(O)c(O)c3O)NC2=O)CC1 (centres unmarked) [ACV-63 (CP)] | % Viability ([1]; 10 uM, listed as 2-195 (CP)): 34.9%; viability at 20 µM [1]: 41%; viability at 50 µM ([1]; 50 uM): 60.6%
9 | 0.183 µM | CN1CCN(CCNC(=O)CC2S/C(=N/N=C/c3ccc(O)c(O)c3O)NC2=O)CC1 (centres unmarked) [ACV-63, N-(2-(4-methylpiperazin-1-yl)ethyl)-2-(4-oxo-2-((2,3,4-trihydroxybenzylidene)hydrazono)thiazolidin-5-yl)acetamide] | % Viability ([1]; 10 uM, listed as 2-195): 94.2%; % Viability ([1]; 50 uM, listed as 2-195): 43.5%
10 | 0.225 µM | O=C(CC1SC(N/N=C/c2ccc(O)c(O)c2O)=NC1=O)Nc1ccc(N2CCCCC2)cc1 (centres unmarked) [ACV-78] | 
11 | 3.01 µM | O=C(NCCN1CCCC1)c1ccc(-c2csc(N/N=C/c3cccnc3)n2)cc1 [ACV-79] | 
12 | 2.86e-05 µM | O=C(COCc1ccc(CN2CCCC2)cc1)N[C@H]1CCCN(Cc2cccnc2)C1=O [ACV-80] | 
13 | 104 µM | CN1CCN(CCNC(=O)Cc2cnc(NC(=O)Nc3cccnc3)s2)CC1 [ACV-81] | 
14 | 50.8 µM | COc1ccc(CC(=O)Nc2ncc(CC(=O)NCCN3CCN(C)CC3)s2)c(OC)c1OC [ACV-82] | 
15 | 23.9 µM | COc1ccc(CC(=O)Nc2nc(CC(=O)Nc3ccc(N4CCCC4)cc3)cs2)c(OC)c1OC [ACV-83] | 
16 | 7.26 µM | O=C(CC12SC(CCN3CCOCC3)(NC1=O)C1C(=O)N(c3ccc(N4CCCC4)cc3)C(=O)C12)Nc1ccc(N2CCCC2)cc1 (centres unmarked) [ACV-84] | 
17 | 54.8 µM | CN1CCN(CCNc2nc(CC(=O)Nc3ccc(N4CCCC4)cc3)cs2)CC1 [ACV-85] | 

Row | IC50 (Human His6-CBX7) | Compound | other results
18 | 11.8 µM | O=C(CC1SC(N/N=C/c2ccc(O)c(O)c2O)=NC1=O)Nc1ccc(N2CCCCCC2)cc1 (centres unmarked) [ACV-86] | 
19 | 7.26 µM | COC(=O)Cc1csc(N/N=C/c2ccc(O)c(O)c2O)n1 [ACV-87] | 
20 | 246 µM | COc1ccc(NC(=O)Cc2csc(NCCN3CCN(C)CC3)n2)c(OC)c1 [ACV-88] | 
21 | 12.9 µM | O=C(Nc1ccc(N2CCCC2)cc1)c1ccc(-c2csc(CCN3CCOCC3)n2)cc1 [ACV-89] | viability at 10 µM ([1]; 10 uM): 31.3%; viability at 20 µM [1]: 29%; viability at 50 µM ([1]; 50 uM): 28%
22 | 12 µM | COC(=O)c1ccc2nc(-c3ccc(O)c(O)c3O)c(NCc3ccccc3)n2c1 [ACV-91] | viability at 10 µM ([1]; 10 uM): 33.5%; viability at 20 µM [1]: 30.5%; viability at 50 µM ([1]; 50 uM): 18%
23 | 170 µM | O=C(N/N=C/c1ccc(N2CCCC2)cc1)c1ccc(-c2csc(NCCc3cccnc3)n2)cc1 [ACV-92] | 
24 | 440 µM | COC(=O)Cc1cnc(NC(=O)c2ccc(CCN3CCCC3)cc2)s1 [ACV-93] | 
25 | 123 µM | c1cn2c(NC3CCCCC3)c(-c3ccc4[nH]ncc4c3)nc2cn1 [ACV-94] | 
26 | 879 µM | COc1ccc(CC(=O)Nc2nc3cc(C(=O)NCCN4CCN(C)CC4)ccc3s2)cc1OC [ACV-95] | 
27 | 79.3 µM | O=C(Cc1ccc(O)c(O)c1)NCc1nc(CC(=O)Nc2ccc(N3CCCC3)cc2)cs1 [ACV-96] | 
28 | 81.7 µM | O=C(c1ccc(-c2csc(NCCc3cccnc3)n2)cc1)N1CCC(N2CCCC2)CC1 [ACV-97] | 
29 | 121 µM | CN1CCN(CCNC(=O)c2ccc(-c3csc(NCCc4cccnc4)n3)cc2)CC1 [ACV-98] | 
30 | 16.4 µM | O=C(Nc1ccc(N2CCCC2)cc1)c1ccc(-c2csc(NCCc3cccnc3)n2)cc1 [ACV-99] | 
31 | 0.835 µM | O=C(CC1SC(N2CCC(c3ccc(O)c(O)c3O)=N2)=NC1=O)Nc1ccc(N2CCCC2)cc1 (centres unmarked) [CBX-08, 2-(4-oxo-2-(3-(2,3,4-trihydroxyphenyl)-4,5-dihydro-1H-pyrazol-1-yl)-4,5-dihydrothiazol-5-yl)-N-(4-(pyrrolidin-1-yl)phenyl)acetamide] | 
32 | 53.4 µM | CN1CCN(CCNC(=O)CC2SC(N3CCC(c4ccc(O)c(O)c4O)=N3)=NC2=O)CC1 (centres unmarked) [CBX-09, N-(2-(4-methylpiperazin-1-yl)ethyl)-2-(4-oxo-2-(3-(2,3,4-trihydroxyphenyl)-4,5-dihydro-1H-pyrazol-1-yl)-4,5-dihydrothiazol-5-yl)acetamide] | 
33 |  | O=C(CC1S/C(=N\N=C\c2cccnc2)NC1=O)Nc1cccc(Cl)c1Cl (centres unmarked) [JQI-III-263-A] | activity in CBX AlphaScreen assay (Human His6-CBX7; cap scan of Scaffold 3, in words (FIG. 8)): improved activity
